# Measured values taken from patent US20170275287A1, “NOVEL N2, N4, N7, 6-TETRASUBSTITUTED PTERIDINE-2,4,7-TRIAMINE AND 2, 4, 6, 7-TETRASUBSTITUTED PTERIDINE COMPOUNDS AND METHODS OF SYNTHESIS AND USE THEREOF” (Janus Biotherapeutics, Inc., priority 2014, published 2017).
# Where two headings read alike, the source gives them in different places.
# Assays:
# [1] = biological target: COMT (catechol-O-methyl transferase) (Sus scrofa, UniProt D3K5L3); assay: Receptor cross-reactivity enzyme panel (CEREP); format: biochemical; details: read-out: % Ligand Inhibition, COMT
# Text: The receptor cross-reactivity profile is composed of 71 binding and 27 enzyme assays. The binding assay panel is broadly defined with roughly an equal number of selective, central and peripheral therapeutically relevant targets. The enzyme assay panel includes the most representative targets from diverse enzyme families with a particular focus on phosphatases and specific enzymes involved in cell cycle regulation. Assays where performed by CEREP, Seattle, Wash., with protocols similar to Cordeaux, Y. et al., 2004 Brit. J. Pharmacol., 143:705-714. JB6121 was tested for receptor cross reactivity at 10 μM for approximately 100 receptors and enzymes. Any % inhibition greater than 50% (IC50<10 μM) is highlighted below in Table 7.
# TLR9 = biological target: T1, TLR9 (Mus musculus, UniProt Q9EQU3); assay: In vivo TLR9 knockdown (CpG-DNA challenge, serum cytokines); set-up: species or system mice
# T1 construct: endogenous in cells
# T1 sequence (Q9EQU3 26-1032): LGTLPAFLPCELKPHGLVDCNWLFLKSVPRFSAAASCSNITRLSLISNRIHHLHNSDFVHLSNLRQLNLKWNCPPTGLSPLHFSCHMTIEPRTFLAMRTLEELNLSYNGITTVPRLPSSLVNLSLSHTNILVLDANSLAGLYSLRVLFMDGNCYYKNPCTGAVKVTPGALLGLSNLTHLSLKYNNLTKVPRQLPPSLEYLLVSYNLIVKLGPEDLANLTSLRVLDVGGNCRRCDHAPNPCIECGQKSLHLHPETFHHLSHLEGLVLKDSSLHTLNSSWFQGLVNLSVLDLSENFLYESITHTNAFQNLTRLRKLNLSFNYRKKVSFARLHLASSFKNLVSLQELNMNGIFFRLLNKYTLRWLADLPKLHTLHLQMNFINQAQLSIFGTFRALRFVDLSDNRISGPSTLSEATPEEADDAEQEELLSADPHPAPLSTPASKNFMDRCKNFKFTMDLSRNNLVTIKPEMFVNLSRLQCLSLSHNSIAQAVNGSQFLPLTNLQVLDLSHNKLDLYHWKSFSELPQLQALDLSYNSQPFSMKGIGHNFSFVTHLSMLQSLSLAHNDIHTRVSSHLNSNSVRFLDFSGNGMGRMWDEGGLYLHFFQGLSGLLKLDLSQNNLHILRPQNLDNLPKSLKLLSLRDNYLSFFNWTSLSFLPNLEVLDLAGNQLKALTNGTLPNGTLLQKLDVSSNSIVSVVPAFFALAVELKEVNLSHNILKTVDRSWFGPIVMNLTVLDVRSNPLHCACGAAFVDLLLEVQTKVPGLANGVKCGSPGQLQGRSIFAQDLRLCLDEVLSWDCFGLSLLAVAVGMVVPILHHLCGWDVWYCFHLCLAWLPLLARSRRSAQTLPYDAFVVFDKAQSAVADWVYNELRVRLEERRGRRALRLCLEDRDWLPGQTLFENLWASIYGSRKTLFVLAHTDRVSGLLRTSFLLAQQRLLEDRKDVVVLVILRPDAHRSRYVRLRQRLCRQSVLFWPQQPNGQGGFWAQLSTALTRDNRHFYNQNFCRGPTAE
# Method: Mice were treated with test antagonist at varying doses at T=0 hr. Agonist treatment (CpG-DNA) dosed one hour later, T=1 hr for IP groups and two hours later, T=2 hr for PO groups. Necropsy performed 3 hours post agonist treatment, T=4 hr (IP groups) or T=5 hr (PO groups). Serum cytokines induced by the TLR agonist are measured by ELISA. Groups size per dose, n=3. The mean+/−SD of two independent ELISA's at differing serum dilutions is plotted.
# [2] = PK/PD study: whole blood JB6121 after 7 days oral dosing; format: in vivo, Sprague-Dawley rats; details: for AUC(0-t)/D / Cmax/D / AUC(0-t) / Cmax / Tmax / AUC / half-life: Day 7; for AUC(0-t) / Cmax / Tmax / concentration at 2 h / concentration at 3 h / concentration at 4 h / concentration at 5 h / AUC / half-life: Sprague-Dawley, rat, whole blood; for concentration at 2 h: Day 7, 2 h; for concentration at 3 h: Day 7, 3 h; for concentration at 4 h: Day 7, 4 h; for concentration at 5 h: Day 7, 5 h; for AUC: read-out: AUC Extrap; for half-life: read-out: t½ (converted)
# Method: The objective of this study was to collect serum following ODN CpG 1668 administration and to determine the pharmacokinetics of JB6121 following oral administration to Sprague-Dawley rats for 7 days. There was a pre-test to establish the appropriate agonist dose for a TLR9 ligand, CpG DNA ODN 1668, in rats using serum IL-12 as the monitored cytokine, groups 1-3, see table 6. Whole blood samples for serum were collected terminally from each animal 3 hours following dosing with ODN CpG 1668. Serum IL-12 was determined by ELISA, data not shown. An agonist dose of lmg/kg was selected for the next phase of the study. For groups administered JB6121 (Groups 4-7), formulations were corrected for base/salt components and not corrected for purity. On the initial day of dose administration, JB6121 formulations were prepared using sterile PBS to the adjusted target dosing concentrations using a factor of 0.8265 to correct for salt content. Dosing was performed as outlined in the following Table 9.
# Animals were assigned to four groups (groups 4-7) and administered JB6121 at 0.39, 1.56, 6.25, or 25 mg/kg in a volume of […] once per day by oral gavage for 7 days. On Day 7, two hours following the JB6121 dose (approximate Cmax), ODN CpG 1668 was administered as a single IP dose at 1 mg/kg in a volume of 1 mL/kg. Whole blood samples for bioanalysis and serum samples for serum cytokine analysis were collected by tail vein bleeding or terminally by cardiac puncture at t=2, 3, 4 and 5 h.
# COMT (catechol-O-methyl transferase), sequence (D3K5L3 entry or part of it): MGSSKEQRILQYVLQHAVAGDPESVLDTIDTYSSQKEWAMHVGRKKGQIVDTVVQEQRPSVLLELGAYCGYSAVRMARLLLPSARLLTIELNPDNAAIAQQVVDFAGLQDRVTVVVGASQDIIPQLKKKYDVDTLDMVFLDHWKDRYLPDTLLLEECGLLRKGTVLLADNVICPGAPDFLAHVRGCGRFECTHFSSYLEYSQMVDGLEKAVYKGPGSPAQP
smiles,measurement,setting,value
"CN1CCN(c2nc(NCCN3CCOCC3)c3nc(Cl)c(NCCN4CCOCC4)nc3n2)CC1 [JB6121, 6-chloro-2-(4-methylpiperazin-1-yl)-N^4,N^7-bis(2-morpholinoethyl)pteridine-4,7-diamine]",inhibition at 10 µM,[1],53.5%
same,"ID50, TLR9 knockdown, IP injection","TLR9; mice, IP, CpG-DNA 1 h later",55.27 μg injection dose
same,"ID50, TLR9 knockdown, PO gavage","TLR9; mice, PO, CpG-DNA 2 h later",59.99 μg delivery dose
same,ED50,"TLR9; mouse, translated for a 25 gram mouse, read-out: ID50, TLR9 knockdown",~2.4 mg/kg
same,AUC(0-t)/D,[2]; 0.39 mg/kg PO daily x7 days,24.8 ng · h/mL/mg/kg/day
same,Cmax/D,[2]; 0.39 mg/kg PO daily x7 days,13.4 ng/mL/mg/kg/day
same,AUC(0-t)/D,[2]; 1.56 mg/kg PO daily x7 days,13.6 ng · h/mL/mg/kg/day
same,Cmax/D,[2]; 1.56 mg/kg PO daily x7 days,6.96 ng/mL/mg/kg/day
same,AUC(0-t)/D,[2]; 6.25 mg/kg PO daily x7 days,34.8 ng · h/mL/mg/kg/day
same,Cmax/D,[2]; 6.25 mg/kg PO daily x7 days,15.2 ng/mL/mg/kg/day
same,AUC(0-t)/D,[2]; 25 mg/kg PO daily x7 days,63 ng · h/mL/mg/kg/day
same,Cmax/D,[2]; 25 mg/kg PO daily x7 days,28.4 ng/mL/mg/kg/day
same,AUC(0-t),[2]; 0.39 mg/kg PO daily x7 days,9.68 ng·h/mL
same,Cmax,[2]; 0.39 mg/kg PO daily x7 days,5.24 ng/mL
same,Tmax,[2]; 0.39 mg/kg PO daily x7 days,3.8 h
same,concentration at 2 h,[2]; 0.39 mg/kg PO daily x7 days,2.5 ng/mL
same,concentration at 3 h,[2]; 0.39 mg/kg PO daily x7 days,3.88 ng/mL
same,concentration at 4 h,[2]; 0.39 mg/kg PO daily x7 days,5.57 ng/mL
same,concentration at 5 h,[2]; 0.39 mg/kg PO daily x7 days,6.47 ng/mL
same,AUC,[2]; 0.39 mg/kg PO daily x7 days,133 ng·h/mL
same,half-life,[2]; 0.39 mg/kg PO daily x7 days,8.75 h
same,AUC(0-t),[2]; 1.56 mg/kg PO daily x7 days,21.3 ng·h/mL
same,Cmax,[2]; 1.56 mg/kg PO daily x7 days,10.9 ng/mL
same,Tmax,[2]; 1.56 mg/kg PO daily x7 days,4 h
same,concentration at 2 h,[2]; 1.56 mg/kg PO daily x7 days,3.93 ng/mL
same,concentration at 3 h,[2]; 1.56 mg/kg PO daily x7 days,8.2 ng/mL
same,concentration at 4 h,[2]; 1.56 mg/kg PO daily x7 days,7.8 ng/mL
same,concentration at 5 h,[2]; 1.56 mg/kg PO daily x7 days,7.76 ng/mL
same,AUC,[2]; 1.56 mg/kg PO daily x7 days,231 ng·h/mL
same,half-life,[2]; 1.56 mg/kg PO daily x7 days,21.2 h
same,AUC(0-t),[2]; 6.25 mg/kg PO daily x7 days,217 ng·h/mL
same,Cmax,[2]; 6.25 mg/kg PO daily x7 days,95 ng/mL
same,Tmax,[2]; 6.25 mg/kg PO daily x7 days,3.2 h
same,concentration at 2 h,[2]; 6.25 mg/kg PO daily x7 days,27 ng/mL
same,concentration at 3 h,[2]; 6.25 mg/kg PO daily x7 days,94.8 ng/mL
same,concentration at 4 h,[2]; 6.25 mg/kg PO daily x7 days,77.8 ng/mL
same,concentration at 5 h,[2]; 6.25 mg/kg PO daily x7 days,63.8 ng/mL
same,AUC,[2]; 6.25 mg/kg PO daily x7 days,609 ng·h/mL
same,half-life,[2]; 6.25 mg/kg PO daily x7 days,4.09 h
same,AUC(0-t),[2]; 25 mg/kg PO daily x7 days,1570 ng·h/mL
same,Cmax,[2]; 25 mg/kg PO daily x7 days,711 ng/mL
same,Tmax,[2]; 25 mg/kg PO daily x7 days,3 h
same,concentration at 2 h,[2]; 25 mg/kg PO daily x7 days,401 ng/mL
same,concentration at 3 h,[2]; 25 mg/kg PO daily x7 days,711 ng/mL
same,concentration at 4 h,[2]; 25 mg/kg PO daily x7 days,487 ng/mL
same,concentration at 5 h,[2]; 25 mg/kg PO daily x7 days,366 ng/mL
same,AUC,[2]; 25 mg/kg PO daily x7 days,2770 ng·h/mL
same,half-life,[2]; 25 mg/kg PO daily x7 days,2.2 h
